In patent US7468391B2, “Methods for treating retinoid responsive disorders using selective inhibitors of CYP26A and CYP26B” (Allergan, Inc., priority 2003, dated 2008):
“And” between values parts separate entries of the source, which are not always exact repeats. Identical values can stand only once. “Also recorded” adds a separate entry of the source. Like-named read-outs stand apart in the source and are kept apart here. One block for each compound: values may come before it.

Key:
human patients = details: Kuijpers, et al. (1998); cited from earlier work
[1] = type: in vivo
Description: (§1) For the hamster model system, male golden syrian hamsters were fed LabDiet#5002 rodent diet and housed individually on a 14/10 hr light/dark cycle. For treatment, the animals were randomized according to body weight and they were also weighed at each treatment so that the drug doses could be adjusted accordingly. The animals were treated daily by oral gavage, 6 days/week for 4 weeks. At the end of treatments, the animals were sacrificed by carbon dioxide inhalation. The flank organs were then excised and spread on a small piece of index card which was placed in a histology cassette for fixation in 10% buffered formaldehyde. The specimen was divided into 5 equally spaced portions to make paraffin blocks and one 5-micrometer H&E sections was prepared from each block. The two sections that contained the most sebaceous glands were used to determine the average acini area of the flank organ. A video camera attached to a standard microscope with the 4× objective was used to capture the images of the sebaceous glands. Computer programs Videoshop and NIH Image 1.63 were used to quantify the acini areas. All the recognizable sebaceous glands in the two sections were analyzed and the means were derived for comparison among various treatments. In all studies, blood samples were also collected for determining the levels of serum triglyceride using a triglyceride GPO Trinder kit from Sigma Chemicals (St. Louis, Mo.).
Experimental results showing the effect of various retinoid compounds on differentiation of sebaceous gland in […] flank organ were generated.

[2] = test system: hamster flank organ sebaceous gland; test: Hamster flank organ sebaceous gland differentiation (model for acne); type: in vivo, male golden syrian hamsters; details: for sebaceous gland differentiation in hamster flank organ: oral gavage, 6 days/week for 4 weeks
Description: Differentiation of hamster flank organ sebaceous gland is a model system for development of acne. To determine the effectiveness of selective CYP26B inhibitors for treating acne, such inhibitors were tested in this model system. To confirm that this model system can predict the effectiveness of a compound in reducing acne, 13-cis retinoic acid (acutane) was used as a positive control.
as §1

hacyp26b = test: Taqman RT-PCR of CYP26B expression in hamster flank organ sebaceous gland; type: in vivo
Description: (§2) Because CYP26 functions in cells to reduce retinoic acid receptor signaling, the effect of inhibiting CYP26 to increase retinoic acid receptor signaling, and thereby reduce differentiation of hamster sebaceous gland differentiation, was examined. The expression of CYP26A and CYP26B in hamster flank organ sebaceous gland was determined using Taqman RT-PCR. Hamsters were treated as described above and sacrificed at various time points (1 day to 3 weeks). The flank organs were excised and placed under a dissecting microscope. Sebaceous glands were removed and put into liquid nitrogen immediately. RNAs were isolated from the glands using Trizol reagents (Invitrogen; San Diego, Calif.) as described by the manufacturer. The RNAs were treated with DNase to remove contaminating genomic DNAs and further purified with the DNA-free kit (Ambion; Austin, Tex.). Quantitative RT-PCR was performed on an ABI 7700 machine using Invitrogen's Platinum qRT-PCR kit with CYP26-specific primers and probes.

hacyp26a = test: Taqman RT-PCR of CYP26A expression in hamster flank organ sebaceous gland; type: in vivo
Description: as §2

RAR α [3] = target: T1, RAR α (Homo sapiens, UniProt P10276); test: RAR α Kd; type: binding; details: last item of cell EC50/(EFFICACY)/Kd
T1 sequence (P10276 1-462): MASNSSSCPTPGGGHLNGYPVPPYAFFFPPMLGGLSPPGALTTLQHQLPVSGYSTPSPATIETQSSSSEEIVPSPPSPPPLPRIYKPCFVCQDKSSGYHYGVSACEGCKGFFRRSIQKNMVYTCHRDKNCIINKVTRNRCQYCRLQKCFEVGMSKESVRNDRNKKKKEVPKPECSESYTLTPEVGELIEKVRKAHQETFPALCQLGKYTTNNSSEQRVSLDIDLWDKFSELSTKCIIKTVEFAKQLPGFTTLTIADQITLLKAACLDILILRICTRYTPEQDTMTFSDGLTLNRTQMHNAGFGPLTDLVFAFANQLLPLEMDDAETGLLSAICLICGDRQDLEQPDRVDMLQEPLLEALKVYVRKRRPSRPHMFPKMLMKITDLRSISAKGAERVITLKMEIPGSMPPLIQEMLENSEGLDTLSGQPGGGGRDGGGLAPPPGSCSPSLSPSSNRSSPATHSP

RAR γ [4] = target: T2, RAR γ (Homo sapiens, UniProt P13631); test: RAR γ Kd; type: binding; details: last item of cell EC50/(EFFICACY)/Kd
T2 sequence (P13631 1-454): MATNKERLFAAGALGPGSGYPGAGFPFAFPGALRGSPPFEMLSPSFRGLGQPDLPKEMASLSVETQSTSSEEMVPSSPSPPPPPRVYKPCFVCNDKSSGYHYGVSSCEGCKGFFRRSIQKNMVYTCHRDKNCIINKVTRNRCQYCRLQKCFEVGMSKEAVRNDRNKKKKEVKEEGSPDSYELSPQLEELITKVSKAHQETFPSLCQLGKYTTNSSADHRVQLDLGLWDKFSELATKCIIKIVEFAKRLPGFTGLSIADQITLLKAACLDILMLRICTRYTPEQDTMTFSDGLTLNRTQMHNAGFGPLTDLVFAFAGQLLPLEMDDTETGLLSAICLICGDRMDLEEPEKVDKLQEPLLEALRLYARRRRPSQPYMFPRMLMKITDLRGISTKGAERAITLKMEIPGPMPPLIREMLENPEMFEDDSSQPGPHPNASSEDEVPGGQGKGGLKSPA

CYP26A (P450RAI-1) = target: T3, CYP26A (P450RAI-1) (Homo sapiens, UniProt O43174); test: Cell-based inhibition of RA metabolism in CYP26A stably transfected HeLa cells; details: stably transfected HeLa cells, [3H]-RA, 3 hours at 37° C.; read-out: P450RAI-1 Whole cell IC50
T3 construct: expressed in transfected cells; host or cells: HeLa
T3 sequence (O43174 1-497): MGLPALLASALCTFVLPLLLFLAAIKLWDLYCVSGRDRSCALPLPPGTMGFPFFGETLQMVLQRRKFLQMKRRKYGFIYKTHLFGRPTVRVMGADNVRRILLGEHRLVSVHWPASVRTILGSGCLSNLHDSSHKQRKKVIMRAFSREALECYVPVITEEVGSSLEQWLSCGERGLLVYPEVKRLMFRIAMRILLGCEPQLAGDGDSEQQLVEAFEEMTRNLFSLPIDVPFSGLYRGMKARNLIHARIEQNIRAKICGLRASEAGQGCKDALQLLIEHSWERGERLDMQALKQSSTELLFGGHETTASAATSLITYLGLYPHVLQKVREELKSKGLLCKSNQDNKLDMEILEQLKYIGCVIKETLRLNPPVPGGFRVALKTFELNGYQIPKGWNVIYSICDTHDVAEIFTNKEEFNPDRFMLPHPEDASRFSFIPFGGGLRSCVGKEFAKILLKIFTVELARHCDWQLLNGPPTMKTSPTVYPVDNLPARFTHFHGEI
Outline: (§3)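 Stably transfected HeLa cells (5×10^5/well) in MEM with 10% FBS and 0.05 μCi [3H]-RA, compounds at 10, 1 or 0.1 μM final, 3 h at 37° C. Retinoids extracted by modified Bligh-Dyer (methylene chloride); aqueous radioactivity counted; ID50 for 50% inhibition of RA metabolism derived from log-transformed data.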

RAR γ [5] = target: T2, RAR γ; test: RAR γ EC50/(efficacy); type: cell-based
RAR α [6] = target: T1, RAR α; test: RAR α EC50/(efficacy); type: cell-based
CYP26B (P450RAI-2) = target: T4, CYP26B (P450RAI-2) (Homo sapiens, UniProt Q9NR63); test: Cell-based inhibition of RA metabolism in CYP26B stably transfected HeLa cells; details: stably transfected HeLa cells, [3H]-RA, 3 hours at 37° C.; read-out: P450RAI-2 Whole cell IC50
T4 construct: expressed in transfected cells; host or cells: HeLa
T4 sequence (Q9NR63 1-512): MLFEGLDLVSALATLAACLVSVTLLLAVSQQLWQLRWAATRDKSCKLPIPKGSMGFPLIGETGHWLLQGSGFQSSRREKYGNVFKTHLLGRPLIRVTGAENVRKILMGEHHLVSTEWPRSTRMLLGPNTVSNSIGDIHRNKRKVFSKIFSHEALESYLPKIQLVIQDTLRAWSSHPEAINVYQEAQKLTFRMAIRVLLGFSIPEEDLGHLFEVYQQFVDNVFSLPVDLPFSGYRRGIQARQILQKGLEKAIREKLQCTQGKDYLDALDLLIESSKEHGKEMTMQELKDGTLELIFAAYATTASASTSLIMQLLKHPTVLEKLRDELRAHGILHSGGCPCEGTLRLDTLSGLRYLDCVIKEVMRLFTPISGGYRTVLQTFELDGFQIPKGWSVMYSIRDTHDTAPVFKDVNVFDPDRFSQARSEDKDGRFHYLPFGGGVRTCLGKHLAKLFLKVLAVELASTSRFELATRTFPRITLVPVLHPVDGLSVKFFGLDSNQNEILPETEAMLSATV
Outline: as §3

RAR β [7] = target: T5, RAR β (Homo sapiens, UniProt P10826); test: RAR β Kd; type: binding; details: last item of cell EC50/(EFFICACY)/Kd
T5 sequence (P10826 1-455): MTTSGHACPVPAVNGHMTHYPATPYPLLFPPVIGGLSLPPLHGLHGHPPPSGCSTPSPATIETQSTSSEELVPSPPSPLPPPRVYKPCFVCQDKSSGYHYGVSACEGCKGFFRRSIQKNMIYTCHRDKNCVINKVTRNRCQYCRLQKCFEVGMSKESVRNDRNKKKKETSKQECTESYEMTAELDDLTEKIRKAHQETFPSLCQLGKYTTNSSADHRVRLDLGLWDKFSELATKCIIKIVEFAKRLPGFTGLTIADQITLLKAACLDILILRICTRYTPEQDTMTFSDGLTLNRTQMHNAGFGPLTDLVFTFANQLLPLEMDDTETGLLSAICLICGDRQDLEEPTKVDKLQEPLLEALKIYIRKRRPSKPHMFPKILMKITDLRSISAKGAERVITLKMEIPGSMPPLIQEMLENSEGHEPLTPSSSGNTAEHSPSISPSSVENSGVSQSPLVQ

RAR β [8] = target: T5, RAR β; test: RAR β EC50/(efficacy); type: cell-based
[9] = first item of cell EC50/(EFFICACY)/Kd
[10] = value in brackets of cell EC50/(EFFICACY)/Kd

Compound: Clc1cccc(C(c2ccc3[nH]cnc3c2)n2ccnc2)c1 (stereo not shown) [liarozole]
effect of treatment in human patients (human patients): amelioration of psoriasis

Compound: C/C(=C\c1ccc(C(=O)O)cc1)c1ccc2c(c1)C(C)(C)CCC2(C)C [TTNPB]
toxicity ([1]; hamster, in vivo): observed at effective doses

Compound: CC1=C(/C=C/C(C)=C/C=C/C(C)=C\C(=O)O)C(C)(C)CCC1 [13-cis retinoic acid]
toxicity ([1]; hamster, in vivo): lower toxicity levels
sebaceous gland differentiation in hamster flank organ [2]: effective in reducing sebaceous gland differentiation; also recorded: appeared to be more effective
hacyp26b Ct (hacyp26b; HFO-9, 1w, listed as 13cisRA): 30.5 and 31.8
hacyp26b Ct (hacyp26b; HFO-9, 2w): 34.1
hacyp26b Relative to veh (hacyp26b; HFO-9, 2w): 0.6×
hacyp26b Ct (hacyp26b; HFO-9, 3w, listed as 13cisRA): 36.7 and 35.7
hacyp26b Relative to veh (hacyp26b; HFO-9, 3w, listed as 13cisRA): 0.1× and 0.2×
hacyp26b Ct (hacyp26b; HFO-9, 4d): 30.6
hacyp26b Relative to veh (hacyp26b; HFO-9, 4d): 13×
CYP26B expression in hamster flank sebaceous gland (hacyp26b; Table 2): induced
hacyp26a Ct (hacyp26a; HFO-9, 1w, listed as 13cisRA): 29.8 and 29.6
hacyp26a Relative to Veh (hacyp26a; HFO-9, 1w, listed as 13cisRA): 12.1× and 13.9×
hacyp26a Ct (hacyp26a; HFO-9, 2w): 30.1
hacyp26a Relative to Veh (hacyp26a; HFO-9, 2w): 9.8×
hacyp26a Ct (hacyp26a; HFO-9, 3w, listed as 13cisRA): 33 and 31.9
hacyp26a Ct (hacyp26a; HFO-9, 4d): 28.1
hacyp26a Relative to Veh (hacyp26a; HFO-9, 4d): 22.6×
CYP26A expression in hamster flank sebaceous gland (hacyp26a; Table 2): induced

Compound: CCc1ccc(C2=CC(C)(C)Sc3ccc(C#Cc4ccc(C(=O)O)cc4)cc32)cc1 [AGN194310]
effect on the 13-cis retinoic acid-induced reduction in sebaceous gland differentiation ([2]; given with 13-cis retinoic acid, FIG. 2): blocked the effect of 13-cis retinoic acid treatment on sebaceous gland differentiation

Compound: CC1=C(/C=C/C(C)=C\C=C\C(C)=C/C(=O)O)C(C)(C)CCC1=O [4-oxo-13-cis RA]
toxicity ([1]; hamster flank organ study): lower toxicity levels
sebaceous gland differentiation in hamster flank organ [2]: appeared to be more effective

Kd (RAR α [3]): 9.9 nM
Kd (RAR γ [4]): 255 nM
IC50 (CYP26A (P450RAI-1)): 700 nM
EC50 (RAR γ [5]; [9]): 31 nM
RAR γ (EFFICACY) (RAR γ [5]; [10]): 68
EC50 (RAR α [6]; [9]): 118 nM
RAR α (EFFICACY) (RAR α [6]; [10]): 52
IC50 (CYP26B (P450RAI-2)): > 10000 nM
Kd (RAR β [7]): 76 nM
EC50 (RAR β [8]; [9]): 18 nM
RAR β (EFFICACY) (RAR β [8]; [10]): 55
Compound: C#Cc1c(C)c(C#Cc2ccc(CC(=O)O)cc2)cc(C(C)(C)C)c1OC(C)C [Compound 45, [4-(5-tert-Butyl-3-ethynyl-4-isopropoxy-2-methyl-phenylethynyl)-phenyl]-acetic acid]
